From publication PMC2937036 (PLoS ONE, 2010)
Where a SMILES comes first, the peptide text is derived from it. Bridges are numbered along the chain shown (N, C = ends).

Experiments:
in vitro = conditions: male, human, 25% human male serum
Procedure: To investigate the effects of the modifications on proteolytic susceptibility, the disappearance of the intact peptides incubated in diluted human serum at 37°C was followed by RP-HPLC. […] Incubations were normally done for 9 h and, in some cases, longer.
Peptide stabilities were assayed in diluted serum as previously described. 25% human male serum was centrifuged at 13,000 rpm for 10 min to remove lipids and the supernatant was collected and incubated at 37°C for at least 15 min. The assay was initiated upon the addition of the test peptide to the serum for a final peptide concentration of 5 µM. 200 µL aliquots of the incubations were taken for the following time points: 0, 30, 75, 120, 240, 390 and 540 min. The aliquots were mixed with 40 µL of 15% trichloroacetic acid (TCA) and incubated at 4°C for at least 15 min to precipitate serum proteins. In the case of Com5 and Com6, 5 µL of 1 M NaOH was supplemented to the TCA to prevent peptide precipitation. The supernatant was collected for each sample after centrifugation at 13,000 rpm for 10 min and stored at −20°C. These assays were performed in triplicate.
Reverse phase high performance liquid chromatography (RP-HPLC) analysis was performed with an AKTA Purifier from Amersham Biosciences (Westborough, MA) using an uRPC C2/C18 ST 4.6/100 column from Pharmacia Biotech (SanJose, CA) of the following dimensions: bed length 100 mm, i.d. 4.6 mm, 120Å. Individually thawed samples were injected through a 100 µL loop, after which a linear gradient was run from 100% solution A (0.05% trifluoroacetic acid (TFA) in filtered water) to 100% solution B (0.045% TFA in 90% acetonitrile) with a flow rate at 0.5 mL/min. The relative concentrations of the remaining soluble peptides were analyzed by the integration of the absorbance at 215 nm as a function of retention time using the Analysis module of the Unicorn software package.

[1] = system: Bacillus subtilis ATCC6633; assay: Bactericidal assay (LD99.9), B. subtilis; type: cell-based; conditions: 10 mM phosphate buffer pH 7.0 with 1% TSB, 2 h, 37°C
Procedure: (§1) The peptides were tested for microbicidal activities against Bacillus subtilis ATCC6633, Escherichia coli ML35, and Staphylococcus aureus 42D as previously described. Suspensions of logarithmically growing test bacteria were incubated on a microtiter plate at a concentration of 10^5 colony-forming units/mL with various peptide dilutions. The medium was 100 µL of 10 mM phosphate buffer pH 7.0 supplemented with 1% (v/v) of tryptic soy broth (TSB). For later assays, human male serum was also added to a final concentration of 25%. 10 µL aliquots were collected at time 0 h and after 2 h of incubation on a rotary shaker (300 rpm) at 37°C. These were plated on blood agar plates and incubated overnight at 37°C. The Lethal Dose concentration (LD99.9) was determined, corresponding to the concentration killing >99.9% of the inoculum at 2 h. These experiments were performed in duplicate.
(§2) For the testing of the peptides' activities in different conditions, e.g. with serum, we use the same cut-off for activity as defined for Minimum Bactericidal Concentration (MBC), i.e. a 1000-fold reduction of the inoculum. However, we designate this peptide concentration with the more general term LD99.9 which can be applied to the specified conditions of the experiments performed here.

[2] = system: Staphylococcus aureus 42D; assay: Bactericidal assay (LD99.9), S. aureus; type: cell-based; conditions: 10 mM phosphate buffer pH 7.0 with 1% TSB, 2 h, 37°C
Procedure: as §1, §2

Escherichia coli ML35 = assay: Bactericidal assay (LD99.9), E. coli; type: cell-based; conditions: 10 mM phosphate buffer pH 7.0 with 1% TSB, 2 h, 37°C
Procedure: as §1, §2

[3] = system: Staphylococcus aureus 42D; assay: Bactericidal assay (LD99.9), S. aureus in 25% human serum; type: cell-based; conditions: unit not given (Table 3 uses µM)
Procedure: In order to be able to make a direct comparison with our serum stability measurements, a few peptides were selected to be tested for antimicrobial activity in 25% human serum (Table 4). […] All LD99.9 values are higher compared to the initial assays in 10 mM sodium phosphate buffer. Contributing factors to this general loss in activity could be the increased ionic concentration, interactions with serum components such as albumin or other proteins, and peptide degradation. Both hexamers with unprotected termini, Lfc1 and Com1, are no longer active while the cyclized short peptides remained fairly antimicrobial. In human serum, Lfc5 and Lfc6 are equally anti-staphylococcal. This reflects a greater loss of activity for Lfc6, but also coincides with the lower serum stability that this peptide has compared to Lfc5 (Fig. 2C). The activities of the cyclized Com peptides were all lowered equally with a 16-fold increase in LD99.9 values compared to activities in serum-excluded media and this agrees with their similar stability profiles (Fig. 2D).
as §1, §2

[4] = target: bovine serum albumin (BSA) (Bos taurus, UniProt P02769); assay: biochemical
Chain of bovine serum albumin (BSA) (P02769 25-607): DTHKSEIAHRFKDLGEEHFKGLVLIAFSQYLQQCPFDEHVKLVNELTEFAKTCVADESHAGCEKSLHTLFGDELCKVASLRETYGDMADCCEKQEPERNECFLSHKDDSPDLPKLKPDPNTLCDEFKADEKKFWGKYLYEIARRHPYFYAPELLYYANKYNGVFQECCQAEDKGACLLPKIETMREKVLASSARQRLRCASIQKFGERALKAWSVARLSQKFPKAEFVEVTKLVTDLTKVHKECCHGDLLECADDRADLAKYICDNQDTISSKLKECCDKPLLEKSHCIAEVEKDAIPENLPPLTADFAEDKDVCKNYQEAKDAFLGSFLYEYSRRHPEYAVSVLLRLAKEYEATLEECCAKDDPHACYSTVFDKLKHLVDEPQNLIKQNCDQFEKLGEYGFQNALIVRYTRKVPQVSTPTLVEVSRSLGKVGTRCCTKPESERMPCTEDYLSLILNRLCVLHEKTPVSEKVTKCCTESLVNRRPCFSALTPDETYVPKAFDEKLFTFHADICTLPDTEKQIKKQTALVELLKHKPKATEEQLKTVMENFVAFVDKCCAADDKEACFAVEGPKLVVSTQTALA
Procedure: The potential for interactions between various peptides and bovine and human serum albumin (BSA and HSA) were studied by microcalorimetry.
ITC experiments were performed at 25°C on a Microcal VP-ITC microcalorimeter with data analysis performed with the Microcal Origin software. The sample cell contained 0.1 mM of either BSA or HSA dissolved in 20 mM HEPES, 100 mM NaCl, pH 7.9. The syringe was loaded with 2 mM test peptide in the same buffer, and each titration point resulted from 5 µL injections following an initial 2 µL injection. Separate control experiments were also performed to account for heats of dilution/mixing.

## CC(=O)N[C@H]1CSSC[C@@H](C(N)=O)NC(=O)[C@H](Cc2ccccc2)NC(=O)[C@H](CCCNC(=N)N)NC(=O)[C@H](Cc2c[nH]c3ccccc23)NC(=O)[C@H](Cc2c[nH]c3ccccc23)NC(=O)[C@H](CCCNC(=N)N)NC(=O)[C@H](CCCNC(=N)N)NC1=O [Com7, CH3CO-CRRWWRFC-NH2] (Ac-CRRWWRFC-NH2; disulfide 1-8)
In vitro
  remaining at 6.5 h, 5 µM: ~50%
[1]
  99.9% Lethal Dose Concentration (LD99.9) B. subtilis: ≤0.45 µM
[2]
  99.9% Lethal Dose Concentration (LD99.9) S. aureus: 1.9 µM
Escherichia coli ML35
  99.9% Lethal Dose Concentration (LD99.9) E. coli: 30 µM
[3]
  LD99.9 anti-S. aureus in 25% human serum: 30
[4]
  Kd: 210 µM
